This series concerns CCRIS mutagenicity, Ames/micronucleus/aberration tests. The series can be described thus: CCRIS mutagenicity studies.
[1] abbreviates: Test System: AMES SALMONELLA TYPHIMURIUM, Strain/Indicator: TA98, Metabolic Activation: NONE, Method: PREINCUBATION
The mark [2] stands for this setting: Test System: AMES SALMONELLA TYPHIMURIUM, Strain/Indicator: TA100, Metabolic Activation: NONE, Method: PREINCUBATION
The mark [3] stands for this setting: Test System: AMES SALMONELLA TYPHIMURIUM, Strain/Indicator: TA100, Metabolic Activation: RAT, LIVER, S-9, PHENOBARBITAL AND 5,6-BENZOFLAVONE, Method: PREINCUBATION

Molecules are shown by their SMILES. Active and inactive are the calls of the source. The rule behind the calls is not given here.

With `Oc1ccccc1-c1ccccc1`, the mutagenic call by setting is: (Test System: AMES SALMONELLA TYPHIMURIUM, Strain/Indicator: TA98, Metabolic Activation: HAMSTER, LIVER, S-9, AROCLOR 1254 (10%), Method: STANDARD PLATE) “inactive; negative”; (Test System: AMES SALMONELLA TYPHIMURIUM, Strain/Indicator: TA98, Metabolic Activation: HAMSTER, LIVER, S-9, AROCLOR 1254, Method: PREINCUBATION) “inactive; negative”; (Test System: AMES SALMONELLA TYPHIMURIUM, Strain/Indicator: TA98, Metabolic Activation: NONE, Method: HOST-MEDIATED) “inactive; negative”; under setting [1], “inactive; negative”; (Test System: AMES SALMONELLA TYPHIMURIUM, Strain/Indicator: TA98, Metabolic Activation: NONE, Method: STANDARD PLATE) “inactive; negative”; (Test System: AMES SALMONELLA TYPHIMURIUM, Strain/Indicator: TA98, Metabolic Activation: RAT, LIVER, S-9, AROCLOR 1254 (10%), Method: STANDARD PLATE) “inactive; negative”. Also, the mutagenic call runs as follows: (Test System: AMES SALMONELLA TYPHIMURIUM, Strain/Indicator: TA98, Metabolic Activation: RAT, LIVER, S-9, AROCLOR 1254, Method: PREINCUBATION) “inactive; negative”; (Test System: AMES SALMONELLA TYPHIMURIUM, Strain/Indicator: TA100, Metabolic Activation: HAMSTER, LIVER, S-9, AROCLOR 1254 (10%), Method: STANDARD PLATE) “inactive; negative”; (Test System: AMES SALMONELLA TYPHIMURIUM, Strain/Indicator: TA100, Metabolic Activation: HAMSTER, LIVER, S-9, AROCLOR 1254, Method: PREINCUBATION) “inactive; negative”; (Test System: AMES SALMONELLA TYPHIMURIUM, Strain/Indicator: TA100, Metabolic Activation: NONE, Method: HOST-MEDIATED) “inactive; negative”; under setting [2], “inactive; negative”; (Test System: AMES SALMONELLA TYPHIMURIUM, Strain/Indicator: TA100, Metabolic Activation: NONE, Method: STANDARD PLATE) “inactive; negative”. The mutagenic call is, setting by setting: (Test System: AMES SALMONELLA TYPHIMURIUM, Strain/Indicator: TA100, Metabolic Activation: RAT, LIVER, S-9, AROCLOR 1254 (10%), Method: STANDARD PLATE) “inactive; negative”; (Test System: AMES SALMONELLA TYPHIMURIUM, Strain/Indicator: TA100, Metabolic Activation: RAT, LIVER, S-9, AROCLOR 1254, Method: PREINCUBATION) “inactive; negative”; (Test System: AMES SALMONELLA TYPHIMURIUM, Strain/Indicator: TA1535, Metabolic Activation: HAMSTER, LIVER, S-9, AROCLOR 1254 (10%), Method: STANDARD PLATE) “inactive; negative”; (Test System: AMES SALMONELLA TYPHIMURIUM, Strain/Indicator: TA1535, Metabolic Activation: HAMSTER, LIVER, S-9, AROCLOR 1254, Method: PREINCUBATION) “inactive; negative”; (Test System: AMES SALMONELLA TYPHIMURIUM, Strain/Indicator: TA1535, Metabolic Activation: NONE, Method: PREINCUBATION) “active; positive”; (Test System: AMES SALMONELLA TYPHIMURIUM, Strain/Indicator: TA1535, Metabolic Activation: NONE, Method: STANDARD PLATE) “inactive; negative”. Also, the mutagenic call runs as follows: (Test System: AMES SALMONELLA TYPHIMURIUM, Strain/Indicator: TA1535, Metabolic Activation: RAT, LIVER, S-9, AROCLOR 1254 (10%), Method: STANDARD PLATE) “inactive; negative”; (Test System: AMES SALMONELLA TYPHIMURIUM, Strain/Indicator: TA1535, Metabolic Activation: RAT, LIVER, S-9, AROCLOR 1254, Method: PREINCUBATION) “inactive; negative”; (Test System: AMES SALMONELLA TYPHIMURIUM, Strain/Indicator: TA1537, Metabolic Activation: HAMSTER, LIVER, S-9, AROCLOR 1254 (10%), Method: STANDARD PLATE) “inactive; negative”; (Test System: AMES SALMONELLA TYPHIMURIUM, Strain/Indicator: TA1537, Metabolic Activation: HAMSTER, LIVER, S-9, AROCLOR 1254, Method: PREINCUBATION) “inactive; negative”; (Test System: AMES SALMONELLA TYPHIMURIUM, Strain/Indicator: TA1537, Metabolic Activation: NONE, Method: PREINCUBATION) “inactive; negative”; (Test System: AMES SALMONELLA TYPHIMURIUM, Strain/Indicator: TA1537, Metabolic Activation: NONE, Method: STANDARD PLATE) “inactive; negative”. Besides, the mutagenic call is “inactive; negative” (Test System: AMES SALMONELLA TYPHIMURIUM, Strain/Indicator: TA1537, Metabolic Activation: RAT, LIVER, S-9, AROCLOR 1254 (10%), Method: STANDARD PLATE); “inactive; negative” (Test System: AMES SALMONELLA TYPHIMURIUM, Strain/Indicator: TA1537, Metabolic Activation: RAT, LIVER, S-9, AROCLOR 1254, Method: PREINCUBATION); “inactive; negative” (Test System: AMES SALMONELLA TYPHIMURIUM, Strain/Indicator: TA1538, Metabolic Activation: HAMSTER, LIVER, S-9, AROCLOR 1254 (10%), Method: STANDARD PLATE); “inactive; negative” (Test System: AMES SALMONELLA TYPHIMURIUM, Strain/Indicator: TA1538, Metabolic Activation: NONE, Method: STANDARD PLATE); “inactive; negative” (Test System: AMES SALMONELLA TYPHIMURIUM, Strain/Indicator: TA1538, Metabolic Activation: RAT, LIVER, S-9, AROCLOR 1254 (10%), Method: STANDARD PLATE); “active; positive” (Test System: CHO/HGPRT, Strain/Indicator: CHO/GIEMSA, Metabolic Activation: NONE, Method: STANDARD PLATE). Also, the mutagenic call is, setting by setting: (Test System: CHO/HGPRT, Strain/Indicator: CHO/GIEMSA, Metabolic Activation: RAT, LIVER, S-9, AROCLOR 1254, Method: STANDARD PLATE) “inactive; negative”; (Test System: E. COLI, Strain/Indicator: WP2, Metabolic Activation: NONE, Method: HOST-MEDIATED) “inactive; negative”; (Test System: Mouse lymphoma, Strain/Indicator: L5178Y (tk+/tk-), Metabolic Activation: None, Method: Suspension/plate) “inactive; negative”; (Test System: Mouse lymphoma, Strain/Indicator: L5178Y (tk+/tk-), Metabolic Activation: Rat, Liver, S-9, Aroclor 1254, Method: Suspension/plate) “active; equivocal (previously evaluated positive)”.

For `C[C@]12CC[C@@H]3c4ccc(O)cc4C[C@@H](CCCCCCCCCS(=O)CCCC(F)(F)C(F)(F)F)[C@H]3[C@@H]1CC[C@@H]2O` (stereo partly specified), the mutagenic call (Test System: CHINESE HAMSTER V-79, Strain/Indicator: V-79 (HPRT)/6-THIOGUANINE, Metabolic Activation: NONE, Method: SUSPENSION/PLATE) is “active; positive”.

For `Fc1cccc2ccc3ncccc3c12`, the mutagenic call under setting [3] was “active; positive”.

In the case of `Cc1ccc2ccc3c(ccc4c5cccc(C)c5ccc43)c2c1`, the mutagenic call was “inactive; negative” (Test System: AMES SALMONELLA TYPHIMURIUM, Strain/Indicator: TA97, Metabolic Activation: RAT, LIVER, S-9, AROCLOR 1254, Method: STANDARD PLATE); “inactive; negative” (Test System: AMES SALMONELLA TYPHIMURIUM, Strain/Indicator: TA98, Metabolic Activation: RAT, LIVER, S-9, AROCLOR 1254, Method: STANDARD PLATE); “inactive; negative” (Test System: AMES SALMONELLA TYPHIMURIUM, Strain/Indicator: TA100, Metabolic Activation: RAT, LIVER, S-9, AROCLOR 1254, Method: STANDARD PLATE); “inactive; negative” (Test System: AMES SALMONELLA TYPHIMURIUM, Strain/Indicator: TA102, Metabolic Activation: RAT, LIVER, S-9, AROCLOR 1254, Method: STANDARD PLATE); “inactive; negative” (Test System: AMES SALMONELLA TYPHIMURIUM, Strain/Indicator: TA104, Metabolic Activation: RAT, LIVER, S-9, AROCLOR 1254, Method: STANDARD PLATE); “inactive; negative” (Test System: AMES SALMONELLA TYPHIMURIUM, Strain/Indicator: TA1537, Metabolic Activation: RAT, LIVER, S-9, AROCLOR 1254, Method: STANDARD PLATE).

Turning to `CC(=O)Nc1ccc2ncccc2c1`, the mutagenic call is “inactive; negative” under setting [1]; “inactive; negative” (Test System: AMES SALMONELLA TYPHIMURIUM, Strain/Indicator: TA98, Metabolic Activation: RAT, LIVER, S-9, KANECHLOR 500, Method: PREINCUBATION); “inactive; negative” under setting [2]; “active; positive” (Test System: AMES SALMONELLA TYPHIMURIUM, Strain/Indicator: TA100, Metabolic Activation: RAT, LIVER, S-9, KANECHLOR 500, Method: PREINCUBATION).

As for `Nc1cccc2ncccc12`, the mutagenic call reads like this: under setting [1], “inactive; negative”; (Test System: AMES SALMONELLA TYPHIMURIUM, Strain/Indicator: TA98, Metabolic Activation: RAT, LIVER, S-9, KANECHLOR 500 OR PHENOBARBITAL AND BETA-NAPHTHOFLAVONE, Method: PREINCUBATION) “active; positive”; under setting [2], “inactive; negative”; (Test System: AMES SALMONELLA TYPHIMURIUM, Strain/Indicator: TA100, Metabolic Activation: RAT, LIVER, S-9, KANECHLOR 500 OR PHENOBARBITAL AND BETA-NAPHTHOFLAVONE, Method: PREINCUBATION) “active; positive”; under setting [3], “active; positive”.

The values are drawn from PubChem BioAssay AID1259407 (Chemical Carcinogenesis Research Information System (CCRIS), 2018).
